Counter-ions that a name gives are not always drawn.

Usually inhibition stands for the change of the read-out against control, counted positive when it falls. The low end stands for little suppression, the high end for strong suppression. Broadly, the IC50 is the point on the concentration scale where inhibition reaches its midpoint. Higher therefore signals weaker potency in that assay.

The test deals with MV4-11, an acute myeloid leukemia cell line. As to the kind of experiment: WST-8 cell viability assay (inhibition of cancer cell proliferation) in MV4-11. The format is cell-based. Particulars: Homo sapiens, MV4-11 cells, 72 hours, WST-8 assay; for inhibition at 10 µM: compound at 10 μM; for IC50: final concentration 0.02 to 100 μM. Here is the method: In order to confirm the inhibition of cancer cell proliferation of the compound, the WST-8 assay (Cyto X cell viability assay kit, LPS solution, Daejeon, Korea) was performed according to the manufacturer's protocol. MV4-11, an acute myeloid leukemia cell line, was inoculated into a 96-well plate at 3×10^3 per well. The cells were cultured for 24 hours, and treated with the compound at a concentration of 10 μM. After 72 hours, the culture medium was discarded and a chromatographic solution was added. Following a 1-hour incubation at 37° C., color development was observed, and the absorbance was measured at 480 nm using a Versamax microplate reader (Molecular Devices, CA, USA). In addition, in order to confirm the IC50 value of the compound in MV4-11, the cells were treated with the compound with the final concentration of 0.02 to 100 μM in the same manner as the experiment above.
On the technique in general: Tetrazolium dyes change colour on reduction, which living cells bring about.

Consider `CCCCNC(=O)N1CCCC(Nc2cc(NC(=O)c3ccc(C(C)(C)C)cc3)ccc2C(=O)OC)C1` (stereo not shown) [Example B-4, methyl 4-(4-(tert-butyl)benzamido)-2-((1-(butylcarbamoyl)piperidin-3-yl)amino)benzoate], for which testing at 10 µM gave an inhibition of 84.6% and the IC50 is 15.3 µM. For `CN(C)S(=O)(=O)N1CCCC(Nc2cc(NC(=O)c3ccc(C(C)(C)C)cc3)ccc2C(N)=O)C1` (stereo not shown) [Example A-3, 4-(tert-butyl)-N-(4-carbamoyl-3-((1-(N,N-dimethylsulfamoyl)piperidin-3-yl)amino)phenyl)benzamide] the same measures were 87.6% and 6.74 µM. For the compound `COC(=O)c1ccc(NC(=O)c2ccc(C(C)(C)C)cc2)cc1NC1CCCN(C)C1` [Example D-7, methyl 4-(4-(tert-butyl)benzamido)-2-((1-methylpiperidin-3-yl)amino)benzoate], at 10 µM the inhibition was 100% and the IC50 amounted to 4.59 µM. For `CC(C)(C)c1ccc(C(=O)Nc2ccc(C(N)=O)c(NC3CCCN(C(=O)Nc4ccc(I)cc4)C3)c2)cc1` (stereo not shown) [Example B-24, 3-((5-(4-(tert-butyl)benzamido)-2-carbamoylphenyl)amino)-N-(4-iodophenyl)piperidine-1-carboxamide] the same measures were 94% and 4.68 µM. Take `CC(C)(C)c1ccc(C(=O)Nc2ccc(C(N)=O)c(NC3CCCN(S(=O)(=O)Cc4ccccc4)C3)c2)cc1` (stereo not shown) [Example A-15, N-(3-((1-(benzylsulfonyl)piperidin-3-yl)amino)-4-carbamoylphenyl)-4-(tert-butyl)benzamide]: testing at 10 µM gave an inhibition of 95.9% and the IC50 stood at 4.1 µM. `CC(C)(C)c1ccc(C(=O)Nc2ccc(C(N)=O)c(NC3CCCN(C(=O)c4ccccc4)C3)c2)cc1` (stereo not shown) [Example C-6, N-(3-((1-benzoylpiperidin-3-yl)amino)-4-carbamoylphenyl)-4-(tert-butyl)benzamide]: at 10 µM the inhibition was 97.1% and it took 4.48 µM to reach half-maximal inhibition (IC50). As for `COc1cc([N+](=O)[O-])ccc1NC(=O)N1CCCC(Nc2cc(NC(=O)c3ccc(C(C)(C)C)cc3)ccc2C(N)=O)C1` (stereo not shown) [Example B-33, 3-((5-(4-(tert-butyl)benzamido)-2-carbamoylphenyl)amino)-N-(2-methoxy-4-nitrophenyl)piperidine-1-carboxamide], testing at 10 µM gave an inhibition of 80.5%. Regarding `CCCCN1CCCC(Nc2cc(NC(=O)c3ccc(C(C)(C)C)cc3)ccc2C(N)=O)C1` [Example D-6, 4-(tert-butyl)-N-(3-((1-butylpiperidin-3-yl)amino)-4-carbamoylphenyl)benzamide], the inhibition at 10 µM came out at 95.5% and the IC50 worked out at 4.5 µM.

As for `CC(C)S(=O)(=O)N1CCCC(Nc2cc(NC(=O)c3ccc(C(C)(C)C)cc3)ccc2C(N)=O)C1` (stereo not shown) [Example A-18, 4-(tert-butyl)-N-(4-carbamoyl-3-((1-(isopropylsulfonyl)piperidin-3-yl)amino)phenyl)benzamide], 10 µM produced 90.3% inhibition and the IC50 was determined as 9.6 µM.

The compound `CC(C)(C)c1ccc(C(=O)Nc2ccc(C(N)=O)c(NC3CCCN(C(=O)Nc4ccc(C(F)(F)F)cc4)C3)c2)cc1` (stereo not shown) [Example B-36, 3-((5-(4-(tert-butyl)benzamido)-2-carbamoylphenyl)amino)-N-(4-(trifluoromethyl)phenyl)piperidine-1-carboxamide] came in with an inhibition at 10 µM of 97.2% and an IC50 of 7.81 µM.

For `COC(=O)c1ccc(NC(=O)c2ccc(C(C)(C)C)cc2)cc1NC1CCCN(Cc2ccccc2)C1` (stereo not shown) [Example E-1, methyl 2-((1-benzylpiperidin-3-yl)amino)-4-(4-(tert-butyl)benzamido)benzoate], the inhibition at 10 µM was found to be 70.1% and the midpoint of inhibition, the IC50, lay at 2.2 µM. For `CN1CCCC(Nc2cc(NC(=O)c3ccc(C(C)(C)C)cc3)ccc2C(N)=O)C1` [Example D-9, 4-(tert-butyl)-N-(4-carbamoyl-3-((1-methylpiperidin-3-yl)amino)phenyl)benzamide], in that order: 100% and 4.3 µM. For `CCc1cccc(CC)c1NC(=O)N1CCCC(Nc2cc(NC(=O)c3ccc(C(C)(C)C)cc3)ccc2C(N)=O)C1` (stereo not shown) [Example B-18, 3-((5-(4-(tert-butyl)benzamido)-2-carbamoylphenyl)amino)-N-(2,6-diethylphenyl)piperidine-1-carboxamide] the same measures were 93.7% and 5.32 µM.

In turn, `CC(C)(C)c1ccc(C(=O)Nc2ccc(C(N)=O)c(NC3CCCNC3)c2)cc1` [Example D-10, 4-(tert-butyl)-N-(4-carbamoyl-3-(piperidin-3-ylamino)phenyl)benzamide trifluoroacetate] displayed an inhibition at 10 µM of 70% and an IC50 of 2 µM. For `CC(C)(C)c1ccc(C(=O)Nc2ccc(C(N)=O)c(NC3CCCN(C(=O)NCc4cccc(F)c4)C3)c2)cc1` (stereo not shown) [Example B-15, 3-((5-(4-(tert-butyl)benzamido)-2-carbamoylphenyl)amino)-N-(3-fluorobenzyl)piperidine-1-carboxamide], 10 µM produced 100% inhibition and the IC50 came out at 4.75 µM. For `CC(C)(C)c1ccc(C(=O)Nc2ccc(C(N)=O)c(NC3CCNCC3)c2)cc1` [Example D-11, 4-(tert-butyl)-N-(4-carbamoyl-3-(piperidin-4-ylamino)phenyl)benzamide trifluoroacetate], in that order: 70% and 1.7 µM. As for `CC(C)(C)c1ccc(C(=O)Nc2ccc(C(N)=O)c(NC3CCCN(C(=O)NC4CCCCC4)C3)c2)cc1` (stereo not shown) [Example B-9, 3-((5-(4-(tert-butyl)benzamido)-2-carbamoylphenyl)amino)-N-cyclohexylpiperidine-1-carboxamide], the inhibition at 10 µM is 94.6% and 2.4 µM corresponded to half-maximal inhibition (IC50). `CCCCCCCCNC(=O)N1CCCC(Nc2cc(NC(=O)c3ccc(C(C)(C)C)cc3)ccc2C(N)=O)C1` (stereo not shown) [Example B-39, 3-((5-(4-(tert-butyl)benzamido)-2-carbamoylphenyl)amino)-N-octylpiperidine-1-carboxamide] displayed an inhibition at 10 µM of 100% and an IC50 of 3.26 µM.

In the case of `CC(C)(C)c1ccc(C(=O)Nc2ccc(C(N)=O)c(NC3CCCN(C(=O)Nc4ccccc4)C3)c2)cc1` (stereo not shown) [Example B-12, 3-((5-(4-(tert-butyl)benzamido)-2-carbamoylphenyl)amino)-N-phenylpiperidine-1-carboxamide], the inhibition at 10 µM was 96.2% and the IC50 was determined as 3.8 µM.

For the compound `CC(C)(C)c1ccc(C(=O)Nc2ccc(C(=O)O)c(NC3CCCN(Cc4ccccc4)C3)c2)cc1` (stereo not shown) [Example E-2, 2-((1-benzylpiperidin-3-yl)amino)-4-(4-(tert-butyl)benzamido)benzoic acid], 10 µM produced 71.1% inhibition and the IC50 came to 9.6 µM. For `CCN1CCCC(Nc2cc(NC(=O)c3ccc(C(C)(C)C)cc3)ccc2C(=O)OC)C1` [Example D-1, methyl 4-(4-(tert-butyl)benzamido)-2-((1-ethylpiperidin-3-yl)amino)benzoate], in that order: 100% and 3.42 µM. For `CCCCN1CCCC(Nc2cc(NC(=O)c3ccc(C(C)(C)C)cc3)ccc2C(=O)OC)C1` [Example D-4, methyl 4-(4-(tert-butyl)benzamido)-2-((1-butylpiperidin-3-yl)amino)benzoate], in that order: 97.8% and 2.2 µM.

The record behind these values is patent US20260184681A1, “PIPERIDINE DERIVATIVE, SALT OF SAME, AND PHARMACEUTICAL COMPOSITION CONTAINING SAME AS ACTIVE INGREDIENT” (PHARMCADD CO., LTD., priority 2022, published 2026).
